Reference: US20240336565A1, “SOLID FORMS OF OSANETANT” (Acer Therapeutics, Inc., priority 2021, published 2024)

Legend:
[1] = Long term stability: oxidation (6% H2O2) at ambient temperature; format: physicochemical; details: for T = 1 month Purity / T = 1 day Purity / T = 2 day Purity / T = 4 day Purity / T = 7 day Purity / T = 14 day Purity: 6% H2O2, ambient, dark; for T = 2 day Purity: 2 days; for T = 4 day Purity: 4 days; for T = 7 day Purity: 7 days; for T = 14 day Purity: 14 days; for Control Purity: 6% H2O2 ambient study
Protocol: (§1) Osanetant p-toluenesulfonic acid Form 1 and osanetant benzenesulfonic acid Form 1 were tested for long-term stability across a number of different conditions, as detailed below.
Oxidation at Ambient Temperature-Osanetant p-toluenesulfonic acid Form 1 and osanetant benzenesulfonic acid Form 1 were prepared at an osanetant content 10 times the normal working concentration then added to HPLC vials containing 6% H2O2 and stored in the dark at ambient laboratory conditions. Samples were diluted to 2 mg/mL for analysis and were taken after T=1, 2, 4, 7, and 14 days storage. […] The purity of the resulting material is described in Table 46: […]

[2] = Long term stability: base (2M NaOH) at 60° C.; format: physicochemical; details: for Control Purity: 2M NaOH 60° C. study; for T = 4 day Purity: 4 days; for T = 7 day Purity: 7 days; for T = 14 day Purity: 14 days
Protocol: as §1
Base at 60° C.—Osanetant p-toluenesulfonic acid Form 1 and osanetant benzenesulfonic acid Form 1 were prepared at an osanetant content 10 times the normal working concentration then added to HPLC vials containing 2M NaOH and stored in a darkened oven at 60° C. Samples were diluted to 2 mg/mL for analysis and were taken after T=1, 2, 4, 7, and 14 days storage. […] The purity of the resulting material is described in Table 45: […]

[3] = Long term stability: acid stability (2M HCl) at 60° C.; format: physicochemical; details: for Control Purity: 2M HCl 60° C. study; for T = 1 day Purity / T = 2 day Purity / T = 4 day Purity: 2M HCl, 60° C., dark; for T = 2 day Purity: 2 days; for T = 4 day Purity: 4 days
Protocol: as §1
Acid Stability at 60° C.—Osanetant p-toluenesulfonic acid Form 1 and osanetant benzenesulfonic acid Form 1 were prepared at an osanetant content 10 times the normal working concentration then added to HPLC vials containing 2M HCl and stored in a darkened oven at 60° C. Samples were diluted to 2 mg/mL for analysis and were taken after T=1, 2, and 4 days storage.

[4] = Long term stability: oxidation (6% H2O2) at 60° C.; format: physicochemical; details: for Control Purity: 6% H2O2 60° C. study; for T = 1 month Purity / T = 1 day Purity / T = 2 day Purity / T = 4 day Purity / T = 7 day Purity / T = 14 day Purity: 6% H2O2, 60° C., dark; for T = 2 day Purity: 2 days; for T = 4 day Purity: 4 days; for T = 7 day Purity: 7 days; for T = 14 day Purity: 14 days
Protocol: as §1
Oxidation at 60° C.—Osanetant p-toluenesulfonic acid Form 1 and osanetant benzenesulfonic acid Form 1 were prepared at an osanetant content 10 times the normal working concentration then added to HPLC vials containing 6% H2O2 and stored in a darkened oven at 60° C. Samples were diluted to 2 mg/mL for analysis and were taken after T=1, 2, 4, 7, and 14 days storage. […] The purity of the resulting material is described in Table 47: […]

[5] = Long term stability: thermal stability of solids at 60° C.; format: physicochemical; details: for T = 1 month Purity / T = 1 day Purity / T = 2 day Purity / T = 4 day Purity / T = 7 day Purity / T = 14 day Purity: solid at 60° C., dark; for T = 2 day Purity: 2 days; for T = 4 day Purity: 4 days; for T = 7 day Purity: 7 days; for T = 14 day Purity: 14 days; for Control Purity: solid, Purity = 100-total other substances
Protocol: as §1
Thermal stability of solids at 60° C.—Osanetant p-toluenesulfonic acid Form 1 and osanetant benzenesulfonic acid Form 1 were stored in a darkened oven at 60° C. in glass vials. Samples were taken after T=1, 2, 4, 7, and 14 days storage. […] The purity of the resulting material is described in Table 41: […]

[6] = Long term stability: acid stability (2M HCl) at ambient temperature; format: physicochemical; details: for Control Purity: 2M HCl ambient study; for T = 1 month Purity / T = 1 day Purity / T = 2 day Purity / T = 4 day Purity / T = 7 day Purity / T = 14 day Purity: 2M HCl, ambient, dark; for T = 2 day Purity: 2 days; for T = 4 day Purity: 4 days; for T = 7 day Purity: 7 days; for T = 14 day Purity: 14 days
Protocol: as §1
Acid Stability at Ambient Temperature-Osanetant p-toluenesulfonic acid Form 1 and osanetant benzenesulfonic acid Form 1 were prepared at an osanetant content 10 times the normal working concentration then added to HPLC vials containing 2M HCl and stored in the dark at ambient laboratory conditions. Samples were diluted to 2 mg/mL for analysis and were taken after T=1, 2, 4, 7, and 14 days storage. […] The purity of the resulting material is described in Table 42: […]

[7] = Long term stability: base (2M NaOH) at ambient temperature; format: physicochemical; details: for Control Purity: 2M NaOH ambient study; for T = 1 month Purity / T = 1 day Purity / T = 2 day Purity / T = 4 day Purity / T = 7 day Purity / T = 14 day Purity: 2M NaOH, ambient, dark; for T = 2 day Purity: 2 days; for T = 4 day Purity: 4 days; for T = 7 day Purity: 7 days; for T = 14 day Purity: 14 days
Protocol: as §1
Base at Ambient Temperature—Osanetant p-toluenesulfonic acid Form 1 and osanetant benzenesulfonic acid Form 1 were prepared at an osanetant content 10 times the normal working concentration then added to HPLC vials containing 2M NaOH and stored in the dark at ambient laboratory conditions. Samples were diluted to 2 mg/mL for analysis and were taken after T=1, 2, 4, 7, and 14 days storage. […] The purity of the resulting material is described in Table 44: […]

[8] = Comparative studies: 7-day stability; format: physicochemical; details: 7 Day Stability
Protocol: Osanetant p-toluenesulfonic acid Form 1, osanetant benzene sulfonic acid Form 3, osanetant naphthalene-2-sulfonic acid Form 3, and osanetant phosphoric acid Form 7 were compared. Osanetant phosphoric acid Form 7 was obtained when preparation of osanetant phosphoric acid Form 4 was repeated and found to be not reproducible, and Form 7 was determined to be a mixture of hydrates).
Thus, osanetant benzene sulfonic acid salt Form 1 and osanetant p-toluene sulfonic acid salt Form 1 were identified as advantageous salts.

[9] = Disproportionation study (stirring in water, XRPD, pH of liquor); format: physicochemical; details: slurry in water at 25° C., 24 h
Protocol: After 24 h total, a white slurry was observed and was isolated by centrifugation. The solids were analyzed by XRPD. The pH of the filtered liquor was measured at 5.63. […] After 24 h total, a white slurry was observed and was isolated by centrifugation. The solids were analyzed by XRPD. The pH of the filtered liquor was measured (pH=5.09).

[10] = Thermodynamic solubility in water and pH buffers; details: 24 h Solubility at 37° C.

## CC(=O)N(C)C1(c2ccccc2)CCN(CCC[C@]2(c3ccc(Cl)c(Cl)c3)CCCN(C(=O)c3ccccc3)C2)CC1.Cc1ccc(S(=O)(=O)O)cc1 [p-toluenesulfonic acid Form 1]
[1]
  T = 1 month Purity: 99.7
  T = 1 day Purity: 99.8
  T = 2 day Purity: 99.8
  T = 4 day Purity: 99.8
  T = 7 day Purity: 99.8
  T = 14 day Purity: 99.8
  Control Purity: 99.8
[2]
  Control Purity: 99.8
[2]; 2M NaOH, 60° C., dark
  T = 1 month Purity: 94.0
  T = 1 day Purity: 99.6
  T = 4 day Purity: 98.4
  T = 7 day Purity: 97.1
  T = 14 day Purity: 94.7
[2]; 2M NaOH, 60° C., dark, 2 days
  T = 2 day Purity: 99.2
[3]
  Control Purity: 99.8
  T = 1 day Purity: 94.8
  T = 2 day Purity: 89.0
  T = 4 day Purity: 80.5
[4]
  Control Purity: 99.8
  T = 1 month Purity: 65.5
  T = 1 day Purity: 99.3
  T = 2 day Purity: 96.6
  T = 4 day Purity: 97.4
  T = 7 day Purity: 95.2
  T = 14 day Purity: 92.4
[5]
  T = 1 month Purity: 99.5
  T = 1 day Purity: 99.7
  T = 2 day Purity: 99.7
  T = 4 day Purity: 99.7
  T = 7 day Purity: 99.6
  T = 14 day Purity: 99.7
  Control Purity: 99.8
[6]
  Control Purity: 99.8
  T = 1 month Purity: 98.0
  T = 1 day Purity: 99.8
  T = 2 day Purity: 99.8
  T = 4 day Purity: 99.9
  T = 7 day Purity: 99.6
  T = 14 day Purity: 99.0
[7]
  Control Purity: 99.8
  T = 1 month Purity: 99.7
  T = 1 day Purity: 99.8
  T = 2 day Purity: 99.8
  T = 4 day Purity: 99.8
  T = 7 day Purity: 99.8
  T = 14 day Purity: 99.8

## CC(=O)N(C)C1(c2ccccc2)CCN(CCCC2(c3ccc(Cl)c(Cl)c3)CCCN(C(=O)c3ccccc3)C2)CC1.O=S(=O)(O)c1ccccc1 (centres unmarked) [benzenesulfonic acid Form 1]
[1]
  T = 1 month Purity: 99.5
  T = 1 day Purity: 99.9
  T = 2 day Purity: 99.9
  T = 4 day Purity: 99.9
  T = 7 day Purity: 99.8
  T = 14 day Purity: 99.8
  Control Purity: 99.9
[2]
  Control Purity: 99.9
[2]; 2M NaOH, 60° C., dark
  T = 1 month Purity: 95.8
  T = 1 day Purity: 99.7
  T = 4 day Purity: 98.5
  T = 7 day Purity: 97.3
  T = 14 day Purity: 95.5
[3]
  Control Purity: 99.9
  T = 1 day Purity: 94.7
  T = 2 day Purity: 89.2
  T = 4 day Purity: 81.0
[4]
  Control Purity: 99.9
  T = 1 month Purity: 77.8
  T = 1 day Purity: 91.9
  T = 2 day Purity: 97.2
  T = 4 day Purity: 94.8
  T = 7 day Purity: 93.1
  T = 14 day Purity: 76.6
[5]
  T = 1 month Purity: 100.0
  T = 1 day Purity: 99.9
  T = 2 day Purity: 99.9
  T = 4 day Purity: 99.9
  T = 7 day Purity: 99.9
  T = 14 day Purity: 100.0
  Control Purity: 99.9
[6]
  Control Purity: 99.9
  T = 1 month Purity: 98.5
  T = 1 day Purity: 100.0
  T = 2 day Purity: 100.0
  T = 4 day Purity: 99.9
  T = 7 day Purity: 99.5
  T = 14 day Purity: 99.3
[7]
  Control Purity: 99.9
  T = 1 month Purity: 99.9
  T = 1 day Purity: 99.9
  T = 2 day Purity: 99.9
  T = 4 day Purity: 99.9
  T = 7 day Purity: 99.9
  T = 14 day Purity: 100.0

## CC(=O)N(C)C1(c2ccccc2)CCN(CCC[C@]2(c3ccc(Cl)c(Cl)c3)CCCN(C(=O)c3ccccc3)C2)CC1.O=S(=O)(O)c1ccccc1 [Besylate Form 3]
[8]; 40° C./75% RH
  HPLC Impurity Content: 0.06 % w/w
[8]; 80° C.
  HPLC Impurity Content: 0.24 % w/w
[8]; Ambient Light
  HPLC Impurity Content: 0.05 % w/w
[9]
  Liquor pH: 5.09
[10]; pH 1.2
  Concentration: 216.3 µg/mL
[10]; pH 4.5
  Concentration: 232.4 µg/mL
[10]; pH 6.8
  Concentration: 363.7 µg/mL
